Data taken from US5286735A, “Derivatives of 4-aminomethylpiperidine, their preparation and their use as therapeutics” (Pierre Fabre Medicament, priority 1991, dated 1994).

Target: T1, serotoninergic 5-HT1A receptors (Rattus norvegicus, UniProt P19327)
T1 construct: The hippocampus is crushed with Polytron; from tissue; host or cells: rat hippocampus membranes (male Charles River rats)
T1 sequence (P19327 1-422): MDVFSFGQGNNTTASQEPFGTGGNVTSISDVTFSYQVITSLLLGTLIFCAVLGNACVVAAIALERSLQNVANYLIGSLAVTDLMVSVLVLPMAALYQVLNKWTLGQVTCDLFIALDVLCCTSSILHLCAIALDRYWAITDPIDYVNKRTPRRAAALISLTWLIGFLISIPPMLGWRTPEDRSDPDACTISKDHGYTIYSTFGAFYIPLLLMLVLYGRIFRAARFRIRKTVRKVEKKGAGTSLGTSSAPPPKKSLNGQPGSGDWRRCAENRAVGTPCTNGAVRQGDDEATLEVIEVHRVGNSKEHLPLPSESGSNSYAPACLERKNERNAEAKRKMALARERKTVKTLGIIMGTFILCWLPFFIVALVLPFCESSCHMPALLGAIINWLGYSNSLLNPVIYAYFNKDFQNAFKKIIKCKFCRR
Assay: 5-HT1A binding studies (3H-8-OH-DPAT ligand, rat hippocampus membranes)
Design: species or system rat (male Charles River)
Settings: 3H-8-OH-DPAT 1 nM, 30 min at 25° C.
Description: The 5-HT1A binding studies were carried out in accordance with Peroutka's technique (see: Peroutka, S. J.: J. Neurochem. 47:529-540, 1986). Male Charles River rats are stunned and decapitated, the brain is removed and dissected. The different cerebral areas obtained are used or preserved at minus 20° C. The hippocampus is crushed with Polytron® (20 seconds at 7) in 20 volumes of 50 mM Tris-HCl buffer (pH 7.7 at 25° C.) and centrifuged at 45,000 g for 10 min. The residue is separated, taken up in the same volume of Tris buffer and incubated for 10 min at 37° C., and then again centrifuged for 10 min at 45, 000 g. The residue is then taken up in 100 volumes of Tris-HCl buffer containing 10 μm of Pargyline, 4 mM CaCl2 and 0.1% ascorbic acid. The mixture obtained is Dounce homogenized.
The binding is effected starting with 0.8 ml of the above membrane suspension to which 0.1 ml of ^3 H-8-OH-DPAT ligand is added (in a concentration of 1 nM) and either 0.1 ml of Tris buffer (control) or the compound of the present invention is added. After incubation for 30 min at 25° C., the mixture is filtered on GF/B (Whatman) and rinsed with 5 ml of iced Tris-HCl buffer. The residue and the filter are finally introduced into a vial containing 3 ml of Instage® scintillating liquid (Packard) and the radioactivity is measured with a Packard counter (Tri-Carbs®). The IC50 are determined graphically for a ligand concentration of 1 nM.

Cc1cccc(C(=O)N2CCC(CNCC3Cc4ccccc4O3)CC2)c1 (stereo not drawn) [Compound 3, 1-(3-Methylbenzoyl) 4-[(2,3-dihydrobenzofuran-2-yl)methylaminomethyl] piperidine]
IC50: 7.5 nM

Cc1cccc(C(=O)N2CCC(CNCC3CCc4ccccc4C3)CC2)c1 (stereo not drawn) [Compound 5, 1-(3-Methylbenzoyl) 4-[(1,2,3,4-tetrahydronaphthalen-2-yl)methylaminomethyl] piperidine]
IC50: 12.5 nM

Cc1cccc(C(=O)N2CCC(CNCC3CCc4ccccc4O3)CC2)c1 (stereo not drawn) [Compound 7, 1-(3-Methylbenzoyl) 4-[(3,4-dihydro 2[H].1-benzopyran-2-yl)methylaminomethyl] piperidine]
IC50: 3.8 nM

O=C(c1ccccc1)N1CCC(CNCC2COc3ccccc3O2)CC1 (stereo not drawn) [Compound 9, 1-Benzoyl 4-(1,4-benzodioxan-2-ylmethylaminomethyl) piperidine]
IC50: 3 nM

Cc1ccc(CN2CCC(CNCC3COc4ccccc4O3)CC2)cc1 (stereo not drawn) [Compound 17, 1-(4-Methylbenzyl) 4-(1,4-benzodioxan-2-ylmethylaminomethyl) piperidine]
IC50: 4.4 nM

Clc1cccc(CN2CCC(CNCC3COc4ccccc4O3)CC2)c1 (stereo not drawn) [Compound 22, 1-(3-Chlorobenzyl) 4-(1,4-benzodioxan-2-ylmethylaminomethyl) piperidine]
IC50: 2.1 nM
